Experimental data as given in US10647713B2 (Nimbus Lakshmi, Inc., priority 2016, dated 2020).

target: human TYK2 (JH2domain-pseudokinase) (Homo sapiens (Human), UniProt P29597); assay: TYK2 JH2 Domain Binding Assay (KINOMEscan, DiscoveRx); conditions: 11-point dilution, duplicate
Method: Binding constants for compounds of the present invention against the JH2 domain were determined by the following protocol for a KINOMEscan® assay (DiscoveRx). A fusion protein of a partial length construct of human TYK2 (JH2domain-pseudokinase) (amino acids G556 to D888 based on reference sequence NP_003322.3) and the DNA binding domain of NFkB was expressed in transiently transfected HEK293 cells. From these HEK 293 cells, extracts were prepared in M-PER extraction buffer (Pierce) in the presence of Protease Inhibitor Cocktail Complete (Roche) and Phosphatase Inhibitor Cocktail Set II (Merck) per manufacturers' instructions. The TYK2 (JH2domain-pseudokinase) fusion protein was labeled with a chimeric double-stranded DNA tag containing the NFkB binding site (5′-GGGAATTCCC-3′) fused to an amplicon for qPCR readout, which was added directly to the expression extract (the final concentration of DNA-tag in the binding reaction is 0.1 nM).
Streptavidin-coated magnetic beads (Dynal M280) were treated with a biotinylated small molecule ligand for 30 minutes at room temperature to generate affinity resins the binding assays. The liganded beads were blocked with excess biotin and washed with blocking buffer (SeaBlock (Pierce), 1% BSA, 0.05% Tween 20, 1 mM DTT) to remove unbound ligand and to reduce nonspecific binding.
The binding reaction was assembled by combining 16 μl of DNA-tagged kinase extract, 3.8 μl liganded affinity beads, and 0.18 μl test compound (PBS/0.05% Tween 20/10 mM DTT/0.1% BSA/2 μg/ml sonicated salmon sperm DNA)]. Extracts were used directly in binding assays without any enzyme purification steps at a ≥10,000-fold overall stock dilution (final DNA-tagged enzyme concentration <0.1 nM). Extracts were loaded with DNA-tag and diluted into the binding reaction in a two step process. First extracts were diluted 1:100 in 1× binding buffer (PBS/0.05% Tween 20/10 mM DTT/0.1% BSA/2 μg/ml sonicated salmon sperm DNA) containing 10 nM DNA-tag. This dilution was allowed to equilibrate at room temperature for 15 minutes and then subsequently diluted 1:100 in 1× binding buffer. Test compounds were prepared as 111× stocks in 100% DMSO. Kds were determined using an 11-point 3-fold compound dilution series with three DMSO control points. All compounds for Kd measurements are distributed by acoustic transfer (non-contact dispensing) in 100% DMSO. The compounds were then diluted directly into the assays such that the final concentration of DMSO was 0.9%. All reactions performed in polypropylene 384-well plates. Each was a final volume of 0.02 mL. Assays were incubated with shaking for 1 hour at room temperature. Then the beads were pelleted and washed with wash buffer (1×PBS, 0.05% Tween 20) to remove displaced kinase and test compound. The washed based were re-suspended in elution buffer (1×PBS, 0.05% Tween 20, 0.5 μM non-biotinylated affinity ligand) and incubated at room temperature with shaking for 30 minutes. The kinase concentration in the eluates was measured by qPCR. qPCR reactions were assembled by adding 2.5 μL of kinase eluate to 7.5 μL of qPCR master mix containing 0.15 μM amplicon primers and 0.15 μM amplicon probe. The qPCR protocol consisted of a 10 minute hot start at 95° C., followed by 35 cycles of 95° C. for 15 seconds, 60° C. for 1 minute.
Test compounds were prepared as 111× stocks in 100% DMSO. Kds were determined using an 11-point 3-fold compound dilution series with three DMSO control points. All compounds for Kd measurements are distributed by acoustic transfer (non-contact dispensing) in 100% DMSO. The compounds were then diluted directly into the assays such that the final concentration of DMSO was 0.9%. The Kds were determined using a compound top concentration of 30,000 nM. Kd measurements were performed in duplicate.
Binding constants (Kds) were calculated with a standard dose-response curve using the Hill equation: […]
The Hill Slope was set to −1. […]

Chain of human TYK2 (JH2domain-pseudokinase) (P29597 556-888): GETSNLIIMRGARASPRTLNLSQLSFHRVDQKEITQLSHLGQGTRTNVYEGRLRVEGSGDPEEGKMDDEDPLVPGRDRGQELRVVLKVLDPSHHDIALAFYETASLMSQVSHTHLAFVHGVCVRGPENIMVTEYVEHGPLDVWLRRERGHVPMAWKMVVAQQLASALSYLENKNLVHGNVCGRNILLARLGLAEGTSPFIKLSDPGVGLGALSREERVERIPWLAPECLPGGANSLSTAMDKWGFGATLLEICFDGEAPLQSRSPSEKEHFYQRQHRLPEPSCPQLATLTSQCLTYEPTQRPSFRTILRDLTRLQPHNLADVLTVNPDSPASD

Kd [nM]	Compound
0.1 to 0.5	Cc1nc2c(Nc3ccc(-c4cnn(C)c4)cc3N(C)S(C)(=O)=O)cc(NC(=O)[C@@H]3C[C@@H]3F)nc2[nH]1 [I-209, (1S,2S)-2-fluoro-N-(2-methyl-7-((4-(1-methyl-1H-pyrazol-4-yl)-2-(N-methylmethylsulfonamido)phenyl)amino)-3H-imidazo[4,5-b]pyridin-5-yl)cyclopropane-1-carboxamide]
0.1 to 0.5	CN=S(C)(=O)c1cc(-c2nc(COC)c(C)s2)ccc1Nc1cc(NC(=O)C2CC2)nc2[nH]c(C(F)F)nc12 (centres unmarked) [I-634]
1 to 10	CS(=O)(=O)c1cc([C@H]2CCCOC2)ccc1Nc1cc(NC(=O)C2CC2)nc2[nH]c(C(F)F)nc12 [I-252, (R)—N-(2-(difluoromethyl)-7-((2-(methylsulfonyl)-4-(tetrahydro-2H-pyran-3-yl)phenyl)amino)-3H-imidazo[4,5-b]pyridin-5-yl)cyclopropanecarboxamide]
< 0.1	Cc1c(-c2ccc(Nc3cc(NC(=O)C4CC4)nc4[nH]c(C(F)F)nc34)c(N(C)S(C)(=O)=O)c2)cnn1C [I-198, N N-(2-(difluoromethyl)-7-((4-(1,5-dimethyl-1H-pyrazol-4-yl)-2-(N-methylmethylsulfonamido)phenyl)amino)-3H-imidazo[4,5-b]pyridin-5-yl)cyclopropanecarboxamide]
< 0.1	Cc1nc2c(Nc3ccc(-c4cnn(C)c4C)cc3S(C)(=O)=O)cc(NC(=O)C3CC3)nc2[nH]1 [I-265, N-(7-((4-(1,5-dimethyl-1H-pyrazol-4-yl)-2-(methylsulfonyl)phenyl)amino)-2-methyl-3H-imidazo[4,5-b]pyridin-5-yl)cyclopropanecarboxamide]
1 to 10	Cc1cc(C)c(-c2ccc(Nc3cc(NC(=O)C4CC4)nc4[nH]c(C(F)F)nc34)c(S(C)(=O)=O)c2)o1 [I-534]
0.1 to 0.5	CN(c1cc(-c2cncn2C)ccc1Nc1cc(NC(=O)[C@@H]2CC2(F)F)nc2[nH]c(C(F)F)nc12)S(C)(=O)=O [I-270, (S)—N-(2-(difluoromethyl)-7-((4-(1-methyl-1H-imidazol-5-yl)-2-(N-methylmethylsulfonamido)phenyl)amino)-3H-imidazo[4,5-b]pyridin-5-yl)-2,2-difluorocyclopropane-1-carboxamide]
0.1 to 0.5	Cc1nc2c(Nc3ccc(Cl)cc3N(C)S(C)(=O)=O)cc(Nc3cccc(C#N)n3)nc2[nH]1 [I-134, N-(5-chloro-2-((5-((6-cyanopyridin-2-yl)amino)-2-methyl-3H-imidazo[4,5-b]pyridin-7-yl)amino)phenyl)-N-methylmethanesulfonamide]
< 0.1	CN(c1ccccc1Nc1cc(Nc2cccc(C#N)n2)nc2[nH]c(C(F)F)nc12)S(C)(=O)=O [I-44, N-(2-((5-((6-cyanopyridin-2-yl)amino)-2-(difluoromethyl)-3H-imidazo[4,5-b]pyridin-7-yl)amino)phenyl)-N-methylmethanesulfonamide]
0.1 to 0.5	Cc1cn(C)c(-c2ccc(Nc3cc(NC(=O)C4CC4)nc4[nH]c(C)nc34)c(S(C)(=O)=O)c2)n1 [I-461, N-(7-((4-(1,4-dimethyl-1H-imidazol-2-yl)-2-(methylsulfonyl)phenyl)amino)-2-methyl-3H-imidazo[4,5-b]pyridin-5-yl)cyclopropanecarboxamide]
0.1 to 0.5	Cc1nc2c(Nc3ccc(-c4ncc(C)n4C)cc3N(C)S(C)(=O)=O)cc(NC(=O)C3CC3)nc2[nH]1 [I-170, N-(7-((4-(1,5-dimethyl-1H-imidazol-2-yl)-2-(N-methylmethyl-sulfonamido)phenyl)amino)-2-methyl-3H-imidazo[4,5-b]pyridin-5-yl)cyclopropanecarboxamide]
0.1 to 0.5	Cc1nc2c(Nc3ccc(C4CC4)cc3N(C)S(C)(=O)=O)cc(NC(=O)C3CC3)nc2[nH]1 [I-184, N-(7-((4-cyclopropyl-2-(N-methylmethylsulfonamido)phenyl)amino)-2-methyl-3H-imidazo[4,5-b]pyridin-5-yl)cyclopropanecarboxamidee]
0.1 to 0.5	Cn1cnc(-c2ccc(Nc3cc(NC(=O)[C@@H]4C[C@@H]4F)nc4[nH]c(C(F)F)nc34)c(S(C)(=O)=O)c2)c1 [I-322, (1S,2S)—N-(2-(difluoromethyl)-7-((4-(1-methyl-1H-imidazol-4-yl)-2-(methylsulfonyl)phenyl)amino)-3H-imidazo[4,5-b]pyridin-5-yl)-2-fluorocyclopropane-1-carboxamide]
0.5 to 1	COc1c(Nc2cc(NC(=O)C3CC3)nc3[nH]c(C)nc23)cccc1-c1nnn(C)n1 [I-98, N-(7-((2-methoxy-3-(2-methyl-2H-tetrazol-5-yl)phenyl)amino)-2-methyl-3H-imidazo[4,5-b]pyridin-5-yl)cyclopropanecarboxamide]
0.1 to 0.5	Cc1nc2c(Nc3ccc(-c4cncn4C)cc3S(C)(=O)=O)cc(NC(=O)[C@H]3C[C@H]3F)nc2[nH]1 [I-261, (1R,2R)-2-fluoro-N-(2-methyl-7-((4-(1-methyl-1H-imidazol-5-yl)-2-(methylsulfonyl)phenyl)amino)-3H-imidazo[4,5-b]pyridin-5-yl)cyclopropane-1-carboxamide]
1 to 10	CS(=O)(=O)c1cc(C2CC2)ccc1Nc1cc(Nc2cccc(C(F)(F)F)n2)nc2[nH]c(C(F)F)nc12 [I-272]
0.5 to 1	COc1c(Nc2cc(NC(=O)[C@@H]3C[C@@H]3F)nc3[nH]c(C)nc23)cccc1-c1ncn(C)n1 [I-266, (1S,2S)-2-fluoro-N-(7-((2-methoxy-3-(1-methyl-1H-1,2,4-triazol-3-yl)phenyl)amino)-2-methyl-3H-imidazo[4,5-b]pyridin-5-yl)cyclopropane-1-carboxamide]
1 to 10	COc1c(Nc2cc(Nc3cnc(N4CC[C@@H](OC)C4)c(C#N)n3)nc3[nH]c(C)nc23)cccc1-c1nnn(C)n1 [I-117, (R)-6-((7-((2-methoxy-3-(2-methyl-2H-tetrazol-5-yl)phenyl)amino)-2-methyl-3H-imidazo[4,5-b]pyridin-5-yl)amino)-3-(3-methoxypyrrolidin-1-yl)pyrazine-2-carbonitrile]
0.5 to 1	Cc1ccn(-c2ccc(Nc3cc(NC(=O)C4CC4)nc4[nH]c(C(F)F)nc34)c(S(C)(=O)=O)c2)n1 [I-63, N-(2-(difluoromethyl)-7-((4-(3-methyl-1H-pyrazol-1-yl)-2-(methylsulfonyl)phenyl)amino)-3H-imidazo[4,5-b]pyridin-5-yl)cyclopropanecarboxamide]

Compound	Kd [nM]
CN(c1cc(-c2cncn2C)ccc1Nc1cc(NC(=O)C2CC2)nc2[nH]c(C(F)F)nc12)S(C)(=O)=O [I-147, N-(2-(difluoromethyl)-7-((4-(1-methyl-1H-imidazol-5-yl)-2-(N-methylmethylsulfonamido)phenyl)amino)-3H-imidazo[4,5-b]pyridin-5-yl)cyclopropanecarboxamide]	< 0.1
Cc1nc(-c2ccc(Nc3cc(NC(=O)C4CC4)nc4[nH]c(C(F)F)nc34)c(S(C)(=O)=O)c2)sc1C [I-415, N-(2-(difluoromethyl)-7-((4-(4,5-dimethylthiazol-2-yl)-2-(methylsulfonyl)phenyl)amino)-3H-imidazo[4,5-b]pyridin-5-yl)cyclopropanecarboxamide]	1 to 10
Cc1ccc(Nc2cc(NC(=O)C3CC3)nc3[nH]c(C(F)F)nc23)c(N(C)S(C)(=O)=O)c1 [I-95, N-(2-(difluoromethyl)-7-((4-methyl-2-(N-methylmethylsulfonamido)phenyl)amino)-3H-imidazo[4,5-b]pyridin-5-yl)cyclopropanecarboxamide]	0.1 to 0.5
Cc1nc2c(Nc3ccc(Cl)cc3S(C)(=O)=O)cc(NC(=O)[C@H]3C[C@H]3F)nc2[nH]1 [I-192, (1R,2R)—N-(7-((4-chloro-2-(methylsulfonyl)phenyl)amino)-2-methyl-3H-imidazo[4,5-b]pyridin-5-yl)-2-fluorocyclopropane-1-carboxamide]	1 to 10
